Patent US20250091990A1, “DEUTERATED ORGANIC COMPOUNDS AND USES THEREOF” (ENGRAIL THERAPEUTICS, INC., priority 2022, published 2025)
“And” between values parts separate entries of the source, which are not always exact repeats. Equal entries are not always repeated. Where two headings read alike, the source gives them in different places. Marks after values point to notes of the source that are not given here.

What was measured:
[1] = molecular target: T1, human Serotonin 5-HT2A receptor (Homo sapiens, UniProt P28223); assay: IPOne HTRF assay, agonist mode, 5-HT2A; format: cell-based; conditions: for Top % Activation at maximal concentration, 5-HT2A (agonist mode): % of reference agonist at EC100, average where marked d
T1 construct: expressed in transfected cells; host or cells: CHO-K1
Protocol: (§1) SPA ^35S-GTPgS experiments are conducted with membrane preparations. IP-One and cAMP HTRF assays are conducted with recombinant cell lines.
(§2) Agonist activity of test compounds is expressed as a percentage of the activity of the reference agonist at its EC100 concentration. Antagonist activity of the test compound is expressed as a percentage of the inhibition of reference agonist activity at its EC80 concentration.

[2] = molecular target: T1, human Serotonin 5-HT2A receptor; assay: IPOne HTRF assay, antagonist mode, 5-HT2A; format: cell-based; conditions: IP-one
Protocol: IP-One and cAMP HTRF assays are conducted with recombinant cell lines.
as §2

[3] = molecular target: T2, human Serotonin 5-HT7A receptor (Homo sapiens, UniProt P34969); assay: Radioligand binding competition, filtration binding assay, 5-HT7A; conditions: for Ki: CHO-K1 membranes
T2 construct: expressed in transfected cells; host or cells: CHO-K1
Protocol: Radioligand binding experiments are conducted with membrane preparations.

[4] = molecular target: human Dopamine D3 receptor (Homo sapiens, UniProt P35462); conditions: GTPγS; average where marked d
Protocol: as §1, §2

[5] = molecular target: T3, human Serotonin 5-HT1A receptor (Homo sapiens, UniProt P08908); assay: cAMP HTRF assay, agonist mode, 5-HT1A; format: cell-based; conditions: % of reference agonist at EC100, average where marked d
T3 sequence (P08908 1-422): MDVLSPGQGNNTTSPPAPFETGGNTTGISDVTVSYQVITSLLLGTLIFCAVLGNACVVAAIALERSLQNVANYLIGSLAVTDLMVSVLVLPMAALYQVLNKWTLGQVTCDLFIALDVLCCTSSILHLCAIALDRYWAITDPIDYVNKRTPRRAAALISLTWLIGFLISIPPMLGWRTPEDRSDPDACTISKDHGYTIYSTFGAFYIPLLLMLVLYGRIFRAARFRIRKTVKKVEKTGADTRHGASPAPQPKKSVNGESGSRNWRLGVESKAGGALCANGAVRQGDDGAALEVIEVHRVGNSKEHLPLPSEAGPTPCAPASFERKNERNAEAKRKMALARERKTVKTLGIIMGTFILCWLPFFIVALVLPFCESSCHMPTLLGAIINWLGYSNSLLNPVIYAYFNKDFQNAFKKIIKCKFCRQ
Protocol: as §1, §2

[6] = system: Adult male Sprague Dawley rats; assay: Headshake response; format: in vivo, rat
Protocol: Example 9—Headshake Response
Adult male Sprague Dawley rats are used. […] DOI (3 mg/kg) is dissolved in saline and administered IP at a dose volume of 1 ml/kg (10 minutes prior to test).
The headshake response is a rapid, rhythmic shaking of the head in a radial motion. Data are analyzed by ANOVA followed by post hoc analysis where appropriate.

[7] = system: Adult male Sprague Dawley rats; assay: DOI-induced headshake response; format: in vivo, rat
Protocol: Example 10—DOI-Induced Headshake Response
Adult male Sprague Dawley rats are used. […] DOI (3 mg/kg) is dissolved in saline and administered IP at a dose volume of 1 ml/kg (10 minutes prior to test). Ketanserin (1 mg/kg) is dissolved in saline and injected IP 30 minutes prior to DOI at a dose volume of […].
Rats are then injected with DOI and headshakes are recorded 10 minutes after DOI injection for 10 minutes using video cameras. The headshake response is a rapid, rhythmic shaking of the head in a radial motion. Data is analyzed by ANOVA followed by post hoc analysis where appropriate.

Male Sprague Dawley rats = assay: Touchscreen-based rat Probabilistic Reward Task; format: in vivo; conditions: 1 mg/kg orally, 4-5 hr prior to session
Text: Example 7—Touchscreen-Based Rat Probabilistic Reward Task
The Probabilistic Reward Task (PRT) uses visual discrimination methodology to quantify reward responsiveness to both identify deficits and characterize drug-induced improvements. Groups of rats are trained on the touchscreen-based PRT and exposed to asymmetrical probabilistic contingencies to generate response biases to the richly rewarded stimulus (Pizzagalli, D. et al., Biological Psychiatry, 2005, 57, 319-327; Kangas, B. et al., Translational Psychiatry, 2020, 10(1):285; Wooldridge, L. et al., International Journal of Neuropsychopharmacology, 2021, 24, 409-418).
Male Sprague Dawley rats are used in the present study.
Briefly, a custom-built Plexiglas chamber (25×30×35 cm) is situated in a sound- and light-attenuating enclosure (40×60×45 cm). A 17″ touch-sensitive screen (1739L, ELO TouchSystems, Menlo Park, CA) comprises the inside right-hand wall of the enclosure. An infusion pump (PHM-100-5, Med Associates, St. Albans, VT) outside the enclosure is used to deliver sweetened condensed milk solution into the shallow reservoir of a custom-designed aluminum receptacle. […]
Following line-length discrimination training, probabilistic reinforcement schedules are introduced. […] These probabilistic contingencies are assessed across 5 consecutive sessions prior to initiation of drug testing.

Adult male Wistar rats = assay: Conditioned Avoidance Response test; format: in vivo, rat
Text: Adult male Wistar rats are used.
The Conditioned Avoidance Response (CAR) Test is an animal model screening for antipsychotic drugs.

[8] = molecular target: T4, human Dopamine D4.4 receptor (Homo sapiens, UniProt P21917); conditions: cAMP; average where marked d
T4 sequence (P21917 1-419): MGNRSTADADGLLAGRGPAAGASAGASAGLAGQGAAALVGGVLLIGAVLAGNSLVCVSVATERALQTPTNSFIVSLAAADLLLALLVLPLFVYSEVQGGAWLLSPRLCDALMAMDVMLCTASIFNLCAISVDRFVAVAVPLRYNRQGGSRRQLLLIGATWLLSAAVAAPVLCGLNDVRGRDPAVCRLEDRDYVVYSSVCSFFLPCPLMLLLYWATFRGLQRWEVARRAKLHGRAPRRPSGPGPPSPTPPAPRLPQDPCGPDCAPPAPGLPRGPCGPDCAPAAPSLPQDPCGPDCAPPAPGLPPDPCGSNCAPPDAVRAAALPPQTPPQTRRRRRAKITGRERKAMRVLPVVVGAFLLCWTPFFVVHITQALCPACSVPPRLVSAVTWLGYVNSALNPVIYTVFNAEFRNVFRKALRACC
Protocol: as §1, §2

[9] = In vitro metabolism, disappearance in pooled cryopreserved human hepatocytes; format: in vitro ADME; conditions: 5 μM; for Disappearance without cells (buffer), 0 min, % / Disappearance without cells (buffer), 60 min, % / Disappearance without cells (buffer), 120 min, %: no cell control / buffer; for Disappearance in human hepatocytes, 0 min, % / Disappearance in human hepatocytes, 60 min, % / Disappearance in human hepatocytes, 120 min, %: with cells
Protocol: Study compounds are investigated in pooled cryopreserved human (mixed gender) hepatocytes. The incubations are performed using 5 μM initial concentration and sampling at 0, 60, and 120 minute time points. The samples are analyzed using UPLC-QE-orbitrap-MS. Incubation volume: 300 μl in 48-well plate. Number of cells: 1 million viable cells/ml. Test compound: 5 μM (stock solution in DMSO). Incubation medium: pH 7.4, Bioreclamation IVT in vitro KHB medium. Shaking: 600 rpm. Time points: 0, 60, and 120 minutes with and without cells. Temperature: 37° C. Sampling volume: 60 μl. DMSO content in incubation: 0.5%. […] Control: verapamil disappearance rate.
Sample preparation for hepatocyte samples: Samples are centrifuged for 20 min at 2272×g at room temperature and pipetted to a UPLC-plate for analysis.

[10] = molecular target: human Dopamine D2S receptor (Homo sapiens, UniProt P14416)
Protocol: as §1, §2

[11] = molecular target: T2, human Serotonin 5-HT7A receptor; assay: cAMP HTRF assay, antagonist mode, 5-HT7A; format: cell-based
[12] = molecular target: T1, human Serotonin 5-HT2A receptor; assay: Radioligand binding competition, filtration binding assay, 5-HT2A (labeled ketanserin)
[13] = [3H]-LSD, average where marked c, read-out: Binding 5-HT7A IC50
[14] = 2.5 and 5 mg/kg orally, 4 hours prior to test
[15] = numbers in parentheses that were averaged, read-out: Binding 5-HT7A IC50, single determinations
[16] = 0.5 mg/kg i.p., 30 minutes prior to test

Chain of human Dopamine D3 receptor (P35462 whole entry): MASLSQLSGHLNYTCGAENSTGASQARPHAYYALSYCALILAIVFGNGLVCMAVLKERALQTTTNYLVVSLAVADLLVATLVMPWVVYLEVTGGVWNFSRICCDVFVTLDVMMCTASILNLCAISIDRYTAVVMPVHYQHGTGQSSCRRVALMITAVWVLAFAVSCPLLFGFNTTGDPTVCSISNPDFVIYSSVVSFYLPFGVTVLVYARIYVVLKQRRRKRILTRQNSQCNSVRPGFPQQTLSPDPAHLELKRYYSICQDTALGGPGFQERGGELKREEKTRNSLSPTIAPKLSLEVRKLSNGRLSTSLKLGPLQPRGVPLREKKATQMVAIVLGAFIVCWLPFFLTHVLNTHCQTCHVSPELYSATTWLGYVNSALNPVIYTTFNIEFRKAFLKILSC
T2 sequence (P34969 1-445 isoform P34969-2): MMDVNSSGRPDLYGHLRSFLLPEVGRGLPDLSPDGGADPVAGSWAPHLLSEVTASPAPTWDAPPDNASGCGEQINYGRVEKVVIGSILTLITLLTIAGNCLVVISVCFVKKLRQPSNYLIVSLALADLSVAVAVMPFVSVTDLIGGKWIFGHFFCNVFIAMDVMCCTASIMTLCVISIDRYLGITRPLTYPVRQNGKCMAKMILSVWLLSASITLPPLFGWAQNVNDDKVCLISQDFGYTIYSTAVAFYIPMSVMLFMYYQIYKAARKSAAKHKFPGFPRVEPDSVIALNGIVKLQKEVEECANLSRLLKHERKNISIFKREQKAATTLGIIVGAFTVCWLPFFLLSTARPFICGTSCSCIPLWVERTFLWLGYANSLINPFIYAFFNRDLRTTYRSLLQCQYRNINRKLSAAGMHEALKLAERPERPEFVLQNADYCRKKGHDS
T1 sequence (P28223 whole entry): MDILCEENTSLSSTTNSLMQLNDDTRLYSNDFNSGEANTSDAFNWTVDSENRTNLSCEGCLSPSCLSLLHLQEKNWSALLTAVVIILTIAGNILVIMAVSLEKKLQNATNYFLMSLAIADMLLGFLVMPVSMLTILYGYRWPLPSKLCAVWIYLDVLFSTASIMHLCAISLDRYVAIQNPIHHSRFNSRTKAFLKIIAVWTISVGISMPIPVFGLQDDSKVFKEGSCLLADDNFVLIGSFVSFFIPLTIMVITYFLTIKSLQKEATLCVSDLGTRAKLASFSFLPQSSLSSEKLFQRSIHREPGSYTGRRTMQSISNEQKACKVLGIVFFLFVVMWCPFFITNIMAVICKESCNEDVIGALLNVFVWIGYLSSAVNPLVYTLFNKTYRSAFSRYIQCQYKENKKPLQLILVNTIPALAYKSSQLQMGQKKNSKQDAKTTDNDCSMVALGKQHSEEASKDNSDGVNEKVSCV
Chain of human Dopamine D2S receptor (P14416 1-414 isoform P14416-2): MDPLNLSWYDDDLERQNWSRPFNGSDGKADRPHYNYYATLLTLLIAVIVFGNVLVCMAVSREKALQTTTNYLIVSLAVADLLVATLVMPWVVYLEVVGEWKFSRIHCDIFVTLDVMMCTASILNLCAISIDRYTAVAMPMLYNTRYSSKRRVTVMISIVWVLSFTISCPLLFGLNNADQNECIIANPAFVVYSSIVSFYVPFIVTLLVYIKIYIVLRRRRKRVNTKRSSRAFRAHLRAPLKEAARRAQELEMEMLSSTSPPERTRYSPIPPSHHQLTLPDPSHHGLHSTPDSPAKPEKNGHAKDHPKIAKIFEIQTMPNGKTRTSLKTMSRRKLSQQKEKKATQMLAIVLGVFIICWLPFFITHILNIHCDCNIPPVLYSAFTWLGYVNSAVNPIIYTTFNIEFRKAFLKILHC

## CNc1cc(OC)c(C(=O)N[C@H]2CCN(Cc3ccccc3)[C@H]2C)cc1Cl (racemic) [Nemonapride, (±)-cis-N-(1-Benzyl-2-methylpyrrolidin-3-yl)-5-chloro-2-methoxy-4-methylaminobenzamide]
[1]; IP-one
  Top % Activation at maximal concentration, 5-HT2A (agonist mode): 48%
[2]
  Top % Inhibition at maximal concentration, 5-HT2A (antagonist mode): 33%
[3]; [3H]-LSD
  Ki: 53.2 nM
[3]; [13]
  IC50: 75.7 nM
[4]
  Top % Inhibition at maximal concentration, D3 (antagonist mode): 126%
[5]
  Top % Activation at maximal concentration, 5-HT1A (agonist mode): 52%

## COc1cc(CC(C)N)c(OC)cc1I (stereo not drawn) [DOI, reference compound]
[6]; 3 mg/kg i.p., 10 minutes prior to test
  Number of headshakes compared to vehicle: significantly increases headshake responses
[7]; DOI 3 mg/kg IP, 10 minutes prior to test
  Number of headshakes compared to vehicle: significantly increases the number of headshakes

## [2H]C([2H])([2H])Nc1cc(OC)c(C(=O)N[C@@H]2CCN(C([2H])([2H])c3ccccc3)[C@@H]2C)cc1Cl [Example 1, 5-Chloro-N-((2R,3R)-1-(dideutero(phenyl)methyl)-2-methylpyrrolidin-3-yl)-2-methoxy-4-(trideuteromethylamino)benzamide]
Male Sprague Dawley rats
  Reward response bias (log b): enhances reward response bias (log b) significantly
[6]; 1, 5 and 10 mg/kg PO, 4 hours prior to test
  Number of headshakes compared to vehicle: no significant increase
Adult male Wistar rats; 0.5, 2.5 and 5 mg/kg orally, 4 hours prior to test
  Escape failures compared to vehicle: None of the doses of the deuterated compound of Example 1 (A2) have a significant treatment effect
Adult male Wistar rats; [14]
  Number of avoidance responses compared to vehicle: significantly decrease
  Percent avoidance compared to vehicle: significantly decrease
[8]
  Top % Inhibition at maximal concentration, D4 (antagonist mode): 100^d %
[9]
  Disappearance without cells (buffer), 0 min, %: 100%
  Disappearance without cells (buffer), 60 min, %: 91%
  Disappearance without cells (buffer), 120 min, %: 92%
  Disappearance in human hepatocytes, 0 min, %: 100%
  Disappearance in human hepatocytes, 60 min, %: 8%
  Disappearance in human hepatocytes, 120 min, %: 1%
[1]; IP-one
  Top % Activation at maximal concentration, 5-HT2A (agonist mode): 69^d %
[1]; IP-one, numbers in parentheses that were averaged, listed as Ex. 1 (A2)
  Top % Activation, 5-HT2A (agonist mode), single determinations: 53% and 82% and 68% and 72%
[1]; compared with non-deuterated analog / summary of Tables 4 and 5
  5-HT2A agonism (in words): 5-HT2A partial agonist and higher 5-HT2A agonism
[7]; 1, 5 and 10 mg/kg PO, 4 hours prior, DOI 3 mg/kg IP
  DOI-induced headshake responses: significantly attenuate DOI-induced headshake responses
[3]; [3H]-LSD
  Ki: 82.6 nM
[3]; [13]
  IC50: 131 nM
[3]; [15]
  IC50: 143 nM and 118 nM
[10]
  Top % Inhibition, D2S (antagonist mode), single determinations: 93) %
[10]; cAMP, numbers in parentheses that were averaged
  Top % Inhibition, D2S (antagonist mode), single determinations: (104, %
[4]
  Top % Inhibition at maximal concentration, D3 (antagonist mode): 122^d %
[11]
  IC50: > 3000 nM
[5]
  Top % Activation at maximal concentration, 5-HT1A (agonist mode): 64^d %

## O=C(c1ccc(F)cc1)C1CCN(CCn2c(=O)[nH]c3ccccc3c2=O)CC1 [Ketanserin]
[7]; 1 mg/kg IP, 30 minutes prior to DOI 3 mg/kg IP
  DOI-induced headshake responses: significantly attenuate DOI-induced headshake responses

## CCN1CCC[C@@H]1CNC(=O)c1c(OC)ccc(Br)c1OC [R-remoxipride]
[12]
  Binding to the 5-HT2A receptor in vitro (in words): do not even bind

## CCN1CCC[C@H]1CNC(=O)c1c(OC)ccc(Br)c1OC [S-remoxipride]
[12]
  Binding to the 5-HT2A receptor in vitro (in words): do not even bind

## CNc1cc(OC)c(C(=O)N[C@@H]2CCN(Cc3ccccc3)[C@@H]2C)cc1Cl [cis (R,R) nemonapride, N-[(2R,3R)-1-benzyl-2-methylpyrrolidin-3-yl]-5-chloro-2-methoxy-4-(methylamino)benzamide, reference compound]
[8]
  Top % Inhibition at maximal concentration, D4 (antagonist mode): 111^d %
[9]
  Disappearance without cells (buffer), 0 min, %: 100%
  Disappearance without cells (buffer), 60 min, %: 96%
  Disappearance without cells (buffer), 120 min, %: 99%
  Disappearance in human hepatocytes, 0 min, %: 100%
  Disappearance in human hepatocytes, 60 min, %: 10%
  Disappearance in human hepatocytes, 120 min, %: 2%
[1]; IP-one
  Top % Activation at maximal concentration, 5-HT2A (agonist mode): 44^d %
[3]; [3H]-LSD
  Ki: 102 nM
[3]; [13]
  IC50: 129 nM
[3]; [15]
  IC50: 112 nM and 145 nM
[4]
  Top % Inhibition at maximal concentration, D3 (antagonist mode): 99^d %
[11]
  IC50: 2470 nM
[5]
  Top % Activation at maximal concentration, 5-HT1A (agonist mode): 78^d %

## Cc1nc2n(c(=O)c1CCN1CCC(c3noc4cc(F)ccc34)CC1)CCCC2 [risperidone, reference compound]
Adult male Wistar rats; [16]
  Number of avoidance responses compared to vehicle: significantly decrease
  Percent avoidance compared to vehicle: significantly decrease
